# Experimental data from patent publication US20170334899A1, “AMINO-SUBSTITUTED ISOTHIAZOLES” (Bayer Pharma Aktiengesellschaft, priority 2014, published 2017).
# Biological target: T1, catalytic domain of human Bub1 (amino acids 704-1085) (Homo sapiens, UniProt O43683)
# T1 construct: catalytic domain of human Bub1 (amino acids 704-1085); His6 (N); made in house; host or cells: insect cells (Hi5)
# Test: Bub1 kinase assay (TR-FRET)
# Format: biochemical
# Conditions: 10 μM ATP, avg, read-out: Bub1 avg (IC50 [mol/l])
# How it was run: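 Readout is the 665/620 nm TR-FRET ratio from anti-phosphoserine antibody, Eu-labelled anti-mouse IgG and streptavidin-XL665, scaled between no-enzyme and uninhibited controls. Reaction: 1 μM biotinylated peptide, 10 μM ATP, 60 min, 22 °C, after 15 min compound preincubation with His6-Bub1 (704-1085, insect-expressed, ~200 ng/ml).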
# T1 sequence (O43683 704-1085): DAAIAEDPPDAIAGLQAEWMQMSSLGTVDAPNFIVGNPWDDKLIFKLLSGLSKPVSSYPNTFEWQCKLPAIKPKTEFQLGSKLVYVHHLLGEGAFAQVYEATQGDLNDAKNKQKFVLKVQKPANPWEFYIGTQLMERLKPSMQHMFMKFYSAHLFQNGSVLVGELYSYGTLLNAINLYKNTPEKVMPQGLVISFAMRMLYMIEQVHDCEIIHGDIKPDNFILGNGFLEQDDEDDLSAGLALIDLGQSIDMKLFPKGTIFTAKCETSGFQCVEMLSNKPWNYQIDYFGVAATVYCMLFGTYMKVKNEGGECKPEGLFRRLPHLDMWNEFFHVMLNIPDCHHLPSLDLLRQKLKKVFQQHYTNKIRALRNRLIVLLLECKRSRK
row,SMILES,IC50
1,"COCCOc1ccc(NC(=O)c2c(C)nsc2Nc2nc3c(C(F)(F)F)cccc3s2)cc1F [Example 1, N-[3-Fluoro-4-(2-methoxyethoxy)phenyl]-3-methyl-5-{[4-(trifluoromethyl)-1,3-benzothiazol-2-yl]amino}-1,2-thiazole-4-carboxamide]",≥ 20 µM
2,"Cc1nsc(Nc2nc3c(C(F)(F)F)cccc3s2)c1C(=O)Nc1ccc(OCCO)nc1 [Example 2, N-[6-(2-Hydroxyethoxy)pyridin-3-yl]-3-methyl-5-{[4-(trifluoromethyl)-1,3-benzo-thiazol-2-yl]amino}-1,2-thiazole-4-carboxamide]",≥ 20 µM
3,"COCCOc1ccc(NC(=O)c2c(C)nsc2Nc2nc3c(C(F)(F)F)cccc3s2)cn1 [Example 3, N-[6-(2-Methoxyethoxy)pyridin-3-yl]-3-methyl-5-{[4-(trifluoromethyl)-1,3-benzo-thiazol-2-yl]amino}-1,2-thiazole-4-carboxamide]",≥ 20 µM
4,"Cc1nsc(Nc2cnc(C(F)(F)F)cn2)c1C(=O)Nc1ccc(OC2CCN(C(=O)OC(C)(C)C)CC2)nc1 [Example 5, tert-Butyl 4-[(5-{[(3-methyl-5-{[5-(trifluoromethyl)pyrazin-2-yl]amino}-1,2-thiazol-4-yl)carbonyl]amino}pyridin-2-yl)oxy]piperidine-1-carboxylate]",≥ 20 µM
5,"Cc1nsc(Nc2ccc(C#N)cn2)c1C(=O)Nc1ccc(OC2CCCN(C(=O)OC(C)(C)C)C2)nc1 (stereo not shown) [Example 36, tert-Butyl 3-({5-[({5-[(5-cyanopyridin-2-yl)amino]-3-methyl-1,2-thiazol-4-yl}-carbonyl)amino]pyridin-2-yl}oxy)piperidine-1-carboxylate]",≥ 20 µM
6,"Cc1nsc(Nc2ccc(C#N)cn2)c1C(=O)Nc1ccc(OC2CCCNC2)nc1 (stereo not shown) [Example 37, 5-[(5-Cyanopyridin-2-yl)amino]-3-methyl-N-[6-(piperidin-3-yloxy)pyridin-3-yl]-1,2-thiazole-4-carboxamide]",≥ 20 µM
7,"Cc1nsc(Nc2ccc(C#N)cn2)c1C(=O)Nc1ccc(OC2CCCN(CC(F)F)C2)nc1 (stereo not shown) [Example 39, 5-[(5-Cyanopyridin-2-yl)amino]-N-(6-{[1-(2,2-difluoroethyl)piperidin-3-yl]oxy}-pyridin-3-yl)-3-methyl-1,2-thiazole-4-carboxamide]",≥ 20 µM
8,"Cc1nsc(Nc2cnccn2)c1C(=O)Nc1ccc(OC2CCCN(C(=O)OC(C)(C)C)C2)nc1 (stereo not shown) [Example 41, tert-Butyl 3-{[5-({[3-methyl-5-(pyrazin-2-ylamino)-1,2-thiazol-4-yl]carbonyl}amino)-pyridin-2-yl]oxy}piperidine-1-carboxylate]",≥ 20 µM
9,"Cc1nsc(Nc2cnc3ccccc3n2)c1C(=O)Nc1ccc(OCCCNC(=O)OC(C)(C)C)nc1 [Example 42, tert-Butyl (3-{[5-({[3-methyl-5-(quinoxalin-2-ylamino)-1,2-thiazol-4-yl]carbonyl}-amino)pyridin-2-yl]oxy}propyl)carbamate]",≥ 20 µM
10,"Cc1nsc(Nc2cc(C#N)ccn2)c1C(=O)Nc1ccc(OCCCNC(=O)OC(C)(C)C)nc1 [Example 43, tert-Butyl [3-({5-[({5-[(4-cyanopyridin-2-yl)amino]-3-methyl-1,2-thiazol-4-yl}-carbonyl)amino]pyridin-2-yl}oxy)propyl]carbamate]",≥ 20 µM
11,"Cc1nsc(Nc2cnccn2)c1C(=O)Nc1ccc(OCCCN)nc1 [Example 48, N-[6-(3-Aminopropoxy)pyridin-3-yl]-3-methyl-5-(pyrazin-2-ylamino)-1,2-thiazole-4-carboxamide]",≥ 20 µM
12,"Cc1nsc(Nc2cnc3ccccc3n2)c1C(=O)Nc1cccc(C(=O)OC(C)(C)C)c1 [Example 49, tert-Butyl 3-({[3-methyl-5-(quinoxalin-2-ylamino)-1,2-thiazol-4-yl]carbonyl}amino)-benzoate]",≥ 20 µM
13,"Cc1nsc(Nc2cnc3ccccc3n2)c1C(=O)Nc1cccc(C(=O)NC(C)(C)C)c1 [Example 53, N-[3-(tert-Butylcarbamoyl)-phenyl]-3-methyl-5-(quinoxalin-2-ylamino)-1,2-thiazole-4-carboxamide]",9 µM
14,"Cc1nsc(Nc2cnc3ccccc3n2)c1C(=O)Nc1cccc(C(=O)N2CCN(C(=O)OC(C)(C)C)CC2)c1 [Example 55, tert-Butyl 4-[3-({[3-methyl-5-(quinoxalin-2-ylamino)-1,2-thiazol-4-yl]carbonyl}amino)-benzoyl]piperazine-1-carboxylate]",≥ 20 µM
15,"Cc1nsc(Nc2cnc3ccccc3n2)c1C(=O)Nc1cccc(C(=O)N[C@@H](CCC(N)=O)C(=O)OC(C)(C)C)c1 [Example 56, tert-butyl N^2-[3-({[3-methyl-5-(quinoxalin-2-ylamino)-1,2-thiazol-4-yl]carbonyl}amino)-benzoyl]glutaminate]",≥ 20 µM
16,"Cc1nsc(Nc2cnc3ccccc3n2)c1C(=O)Nc1cccc(C(=O)N[C@H](C(=O)OC(C)(C)C)[C@@H](C)OC(C)(C)C)c1 [Example 57, tert-Butyl O-tert-butyl-N-[3-({[3-methyl-5-(quinoxalin-2-ylamino)-1,2-thiazol-4 yl]carbonyl}amino)-benzoyl]threoninate]",≥ 20 µM
17,"Cc1nsc(Nc2cnc(C(F)(F)F)cn2)c1C(=O)Nc1ccc(F)c(OCC2CCN(CC(F)(F)F)C2)c1 (stereo not shown) [Example 318, N-(4-fluoro-3-{[1-(2,2,2-trifluoroethyl)pyrrolidin-3-yl]methoxy}phenyl)-3-methyl-5-{[5-(trifluoromethyl)pyrazin-2-yl]amino}-1,2-thiazole-4-carboxamide]",> 20 µM
18,"CCCN1CCC(COc2ccc(NC(=O)c3c(C)nsc3Nc3cnc(C(F)(F)F)cn3)cn2)C(F)(F)C1 (stereo not shown) [Example 394, N-{6-[(3,3-difluoro-1-propylpiperidin-4-yl)methoxy]pyridin-3-yl}-3-methyl-5-{[5-(trifluoromethyl)pyrazin-2-yl]amino}-1,2-thiazole-4-carboxamide]",> 20 µM

# Now from value to compound:
row,IC50,SMILES
1,≥ 20 µM,"Cc1nsc(Nc2nc3c(C(F)(F)F)cccc3s2)c1C(=O)Nc1ccc(OCCO)c(F)c1 [Example 4, N-[3-Fluoro-4-(2-hydroxyethoxy)phenyl]-3-methyl-5-{[4-(trifluoromethyl)-1,3-benzothiazol-2-yl]amino}-1,2-thiazole-4-carboxamide]"
2,≥ 20 µM,"Cc1nsc(Nc2cc(C#N)ccn2)c1C(=O)Nc1ccc(OC2CCCNC2)nc1 (stereo not shown) [Example 35, 5-[(4-Cyanopyridin-2-yl)amino]-3-methyl-N-[6-(piperidin-3-yloxy)pyridin-3-yl]-1,2-thiazole-4-carboxamide]"
3,≥ 20 µM,"Cc1nsc(Nc2ccc(C#N)cn2)c1C(=O)Nc1ccc(OC2CCCN(CCF)C2)nc1 (stereo not shown) [Example 38, 5-[(5-Cyanopyridin-2-yl)amino]-N-(6-{[1-(2-fluoroethyl)piperidin-3-yl]oxy}pyridin-3-yl)-3-methyl-1,2-thiazole-4-carboxamide]"
4,≥ 20 µM,"Cc1nsc(Nc2ccc(C#N)cn2)c1C(=O)Nc1ccc(OC2CCCN(CC(F)(F)F)C2)nc1 (stereo not shown) [Example 40, 5-[(5-Cyanopyridin-2-yl)amino]-3-methyl-N-(6-{[1-(2,2,2-trifluoroethyl)piperidin-3-yl]oxy}pyridin-3-yl)-1,2-thiazole-4-carboxamide]"
5,≥ 20 µM,"Cc1nsc(Nc2cc(C#N)ccn2)c1C(=O)Nc1ccc(OCCCN)nc1 [Example 44, N-[6-(3-Aminopropoxy)pyridin-3-yl]-5-[(4-cyanopyridin-2-yl)amino]-3-methyl-1,2-thiazole-4-carboxamide]"
6,≥ 20 µM,"Cc1nsc(Nc2cc(C#N)ccn2)c1C(=O)Nc1ccc(OCCCNCC(F)F)nc1 [Example 45, 5-[(4-Cyanopyridin-2-yl)amino]-N-(6-{3-[(2,2-difluoroethyl)amino]propoxy}pyridin-3-yl)-3-methyl-1,2-thiazole-4-carboxamide]"
7,≥ 20 µM,"Cc1nsc(Nc2ccc(C#N)cn2)c1C(=O)Nc1ccc(OCCCNC(=O)OC(C)(C)C)nc1 [Example 46, tert-Butyl [3-({5-[({5-[(5-cyanopyridin-2-yl)amino]-3-methyl-1,2-thiazol-4-yl}-carbonyl)amino]pyridin-2-yl}oxy)propyl]carbamate]"
8,≥ 20 µM,"Cc1nsc(Nc2cnccn2)c1C(=O)Nc1ccc(OCCCNC(=O)OC(C)(C)C)nc1 [Example 47, tert-Butyl (3-{[5-({[3-methyl-5-(pyrazin-2-ylamino)-1,2-thiazol-4-yl]carbonyl}-amino)pyridin-2-yl]oxy}propyl)carbamate]"
9,≥ 20 µM,"COC(=O)c1cccc(NC(=O)c2c(C)nsc2Nc2cnc3ccccc3n2)c1 [Example 50, Methyl 3-({[3-methyl-5-(quinoxalin-2-ylamino)-1,2-thiazol-4-yl]carbonyl}amino)-benzoate]"
10,1.9 µM,"Cc1nsc(Nc2cnc3ccccc3n2)c1C(=O)Nc1cccc(C(=O)O)c1 [Example 51, 3-({[3-Methyl-5-(quinoxalin-2-ylamino)-1,2-thiazol-4-yl]carbonyl}amino)benzoic acid]"
11,9 µM,"Cc1nsc(Nc2cnc3ccccc3n2)c1C(=O)Nc1cccc(C(=O)N2CCOCC2)c1 [Example 52, 3-Methyl-N-[3-(morpholin-4-ylcarbonyl)phenyl]-5-(quinoxalin-2-ylamino)-1,2-thiazole-4-carboxamide]"
12,16 µM,"Cc1nsc(Nc2cnc3ccccc3n2)c1C(=O)Nc1cccc(C(=O)NCC(=O)OC(C)(C)C)c1 [Example 54, tert-Butyl N-[3-({[3-methyl-5-(quinoxalin-2-ylamino)-1,2-thiazol-4-yl]carbonyl}amino)-benzoyl]glycinate]"
13,≥ 20 µM,"Cc1nsc(Nc2cnc(C(F)(F)F)cn2)c1C(=O)Nc1ccc(OC[C@H]2CCCN(CCC(F)(F)F)C2)nc1 [Example 378, 3-methyl-5-{[5-(trifluoromethyl)pyrazin-2-yl]amino}-N-(6-{[(3S)-1-(3,3,3-trifluoropropyl)piperidin-3-yl]methoxy}pyridin-3-yl)-1,2-thiazole-4-carboxamide]"
